Measured values: ChEMBL document CHEMBL3868599, “Strategy for designing selective α-l-rhamnosidase inhibitors: Synthesis and biological evaluation of l-DMDP cyclic isothioureas” (Bioorg Med Chem, 2017)
Blank lines part the entries; values can stand above or below the compound they belong to.

Key:
Penicillium decumbens [1] = assay: Inhibition of Penicillium decumbens alpha-L-rhamnosidase at 1000 uM using p-nitrophenyl-glycoside as substrate by spectrophotometric method
[2] = Inhibition of yeast alpha-glucosidase using p-nitrophenyl-glycoside as substrate by spectrophotometric method; parameters: species or system Saccharomyces cerevisiae
[3] = Inhibition of almond beta-glucosidase using p-nitrophenyl-glycoside as substrate by spectrophotometric method; parameters: species or system Prunus dulcis
[4] = Inhibition of bovine liver beta-glucosidase using p-nitrophenyl-glycoside as substrate by spectrophotometric method; parameters: species or system Bos taurus
Homo sapiens = organism: Homo sapiens; assay: Inhibition of human lysosomal beta-glucosidase at 1000 uM using 4-methylumbelliferyl-beta-D-glucopyranoside as substrate preincubated for 45 mins followed by substrate addition measured after 30 mins by fluorescence spectrophotometric method
Coffea = assay: Inhibition of coffee bean alpha-galactosidase at 1000 uM using p-nitrophenyl-glycoside as substrate by spectrophotometric method
Escherichia coli = assay: Inhibition of Escherichia coli beta-galactosidase at 1000 uM using p-nitrophenyl-glycoside as substrate by spectrophotometric method
[5] = biological target: T1, Alpha-mannosidase (Canavalia ensiformis) (UniProt C0HJB3); assay: Inhibition of Jack bean alpha-mannosidase at 1000 uM preincubated for 45 mins followed by addition of p-nitrophenyl-glycoside as substrate measured after 30 mins by fluorescence spectrophometry
T1 sequence (whole entry): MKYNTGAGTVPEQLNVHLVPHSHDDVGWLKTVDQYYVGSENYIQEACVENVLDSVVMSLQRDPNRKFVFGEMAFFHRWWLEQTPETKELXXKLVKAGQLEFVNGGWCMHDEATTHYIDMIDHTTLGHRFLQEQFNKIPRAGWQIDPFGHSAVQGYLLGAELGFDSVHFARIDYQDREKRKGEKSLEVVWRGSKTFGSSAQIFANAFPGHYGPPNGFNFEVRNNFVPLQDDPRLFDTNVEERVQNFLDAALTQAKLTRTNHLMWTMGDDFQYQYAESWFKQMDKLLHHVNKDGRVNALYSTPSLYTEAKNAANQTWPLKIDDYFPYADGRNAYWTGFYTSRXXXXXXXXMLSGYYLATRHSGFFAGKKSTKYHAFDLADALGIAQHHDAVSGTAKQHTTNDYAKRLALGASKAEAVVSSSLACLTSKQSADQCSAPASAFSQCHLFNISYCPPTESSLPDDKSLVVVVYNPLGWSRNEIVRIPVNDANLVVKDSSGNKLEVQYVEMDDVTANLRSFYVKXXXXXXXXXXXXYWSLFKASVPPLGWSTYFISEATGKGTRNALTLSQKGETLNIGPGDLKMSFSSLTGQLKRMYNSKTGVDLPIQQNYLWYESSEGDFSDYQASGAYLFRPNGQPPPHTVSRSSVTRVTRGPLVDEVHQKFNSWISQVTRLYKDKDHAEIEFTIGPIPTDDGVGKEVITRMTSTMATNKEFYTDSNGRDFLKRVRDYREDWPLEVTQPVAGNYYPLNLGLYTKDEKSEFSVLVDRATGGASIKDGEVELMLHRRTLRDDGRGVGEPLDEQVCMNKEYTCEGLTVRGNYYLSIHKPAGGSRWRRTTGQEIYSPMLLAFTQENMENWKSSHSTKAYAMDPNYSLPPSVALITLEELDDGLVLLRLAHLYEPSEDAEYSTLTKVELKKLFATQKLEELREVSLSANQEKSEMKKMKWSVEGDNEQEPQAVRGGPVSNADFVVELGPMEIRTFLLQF

[6] = Inhibition of Helix pomatia beta-mannosidase using p-nitrophenyl-glycoside as substrate by spectrophotometric method
[7] = Inhibition of Aspergillus niger amyloglucosidase assessed as D-glucose level using maltose as substrate measured after 10 to 30 mins
Penicillium decumbens [8] = assay: Inhibition of Penicillium decumbens alpha-L-rhamnosidase at 750 uM relative to control
Penicillium decumbens [9] = assay: Inhibition of Penicillium decumbens alpha-L-rhamnosidase at 1000 uM relative to control

inhibition (Penicillium decumbens [1]): < 50%
IC50 [2]: 7.8 µM
IC50 [3]: 10 µM
IC50 [4]: 9.7 µM
inhibition (Homo sapiens): < 50%
inhibition (Coffea): < 50%
inhibition (Escherichia coli): < 50%
inhibition [5]: < 50%
IC50 [6]: 721 µM
IC50 [7]: 116 µM
Structure (SMILES): OC[C@H]1N[C@H](CO)[C@@H](O)[C@@H]1O

inhibition (Penicillium decumbens [8]): < 50%
Structure (SMILES): C[C@@H]1NC[C@H](O)[C@H](O)[C@H]1O

inhibition (Penicillium decumbens [9]): < 50%
Structure (SMILES): OC[C@@H]1NC[C@H](O)[C@@H]1O
